In patent publication US7528140B2, “Substituted pyrrolo[3,2-d]pyrimidines as glycogen synthase kinase (GSK) inhibitors” (Teijin Limited, priority 2002, dated 2009):

Target: recombinant human GSK-3β (Homo sapiens, UniProt P49841)
Test: Measurement of GSK-3 enzyme activity inhibition (32P phosphorylation of phospho-glycogen synthase peptide-2)
Format: biochemical
Settings: 20 μM ATP, 20 minutes at room temperature, read-out: GSK-3 enzyme inhibiting activity (IC50)
Protocol: Measurement of GSK-3 Enzyme Activity Inhibition
After adding 25 μL of phospho-glycogen synthase peptide-2 substrate solution [6 μM phospho -glycogen synthase peptide-2, 20 μM ATP, 16 mM MOPS buffer (pH 7.0), 0.2 mM EDTA, 20 mM magnesium acetate, 0.1 μCi [γ-^32P]ATP (specific activity: approximately 110 TBq/mmol)]to 5 μL of the test compound using 5% dimethylsulfoxide as the solvent, reaction was initiated by further addition of 20 μL of a GSK-3β enzyme solution [10 mU recombinant human GSK-3β, 20 mM MOPS buffer (pH 7.0), 1 mM EDTA, 0.1% polyoxyethylene lauryl ether (23 Lauryl Ether; Brij 35), 5% glycerol, 0.1% β-mercaptoethanol]. After conducting the reaction for 20 minutes at room temperature, an equivalent volume of a 200 mM phosphoric acid solution was added to quench the reaction, and 90 μL of the reaction product was adsorbed onto a MultiScreen PH plate (Millipore) and rinsed with a 100 mM phosphoric acid solution. After drying the plate, 30 μL of Micro Scint-O (Packard BioScience) was added, and the cpm was measured with a scintillation counter to determine the inhibiting activity. Phospho GS Peptide2 is […]P)-Glu-Asp-Glu-Glu-Glu (SEQ ID NO:1).

recombinant human GSK-3β, sequence (P49841 whole entry): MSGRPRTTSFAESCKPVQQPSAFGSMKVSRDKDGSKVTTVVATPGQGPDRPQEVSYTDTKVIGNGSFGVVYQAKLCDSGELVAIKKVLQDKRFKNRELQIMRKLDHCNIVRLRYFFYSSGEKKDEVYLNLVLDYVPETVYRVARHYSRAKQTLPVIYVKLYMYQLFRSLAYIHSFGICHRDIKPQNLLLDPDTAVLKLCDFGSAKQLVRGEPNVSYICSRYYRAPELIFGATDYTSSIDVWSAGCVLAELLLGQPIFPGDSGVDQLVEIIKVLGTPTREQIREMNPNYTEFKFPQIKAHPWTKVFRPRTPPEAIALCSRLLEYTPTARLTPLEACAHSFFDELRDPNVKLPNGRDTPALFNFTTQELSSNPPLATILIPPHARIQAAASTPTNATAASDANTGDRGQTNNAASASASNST

SMILES	IC50
N#Cc1c(C=Cc2ccccc2)[nH]c2c(=O)[nH]cnc12 [1-0006]	1000 to 10000 nM
N#Cc1c(-c2ccccc2)[nH]c2c(=O)[nH]cnc12 [1-0007]	1000 to 10000 nM
COc1ccccc1-c1[nH]c2c(=O)[nH]cnc2c1C#N [1-0038, 6-(2-methoxyphenyl)-4-oxo-3-hydropyrrolo[3,2-d]pyrimidine-7-carbonitrile]	1000 to 10000 nM
CC(C)CCn1c(-c2ccccc2)c(C#N)c2nc[nH]c(=O)c21 [1-0113]	1000 to 10000 nM
CC(C)CCn1c(-c2ccccc2)c(C#N)c2nc[nH]c(=S)c21 [1-0114]	1000 to 10000 nM
CC(C)(C)Cn1c(-c2ccccc2)c(C#N)c2nc[nH]c(=S)c21 [1-0129]	1000 to 10000 nM
CCCCCn1c(-c2ccccc2)c(C#N)c2nc[nH]c(=O)c21 [1-0132]	1000 to 10000 nM
N#Cc1c(-c2ccccc2)n(CCCO)c2c(=O)[nH]cnc12 [1-0194]	1000 to 10000 nM
COCCn1c(-c2ccccc2)c(C#N)c2nc[nH]c(=S)c21 [1-0208]	1000 to 10000 nM
CCOCCn1c(-c2ccccc2)c(C#N)c2nc[nH]c(=S)c21 [1-0215]	1000 to 10000 nM
COCCCn1c(-c2ccccc2)c(C#N)c2nc[nH]c(=O)c21 [1-0227]	1000 to 10000 nM
CSCCCn1c(-c2ccccc2)c(C#N)c2nc[nH]c(=O)c21 [1-0263]	1000 to 10000 nM
N#Cc1c(-c2ccccc2)n(CC2CC2)c2c(=S)[nH]cnc12 [1-0275]	1000 to 10000 nM
N#Cc1cn(Cc2ccccc2)c2c(=S)[nH]cnc12 [1-0301]	1000 to 10000 nM
N#Cc1c(C2CC2)n(Cc2ccccc2)c2c(=O)[nH]cnc12 [1-0303]	1000 to 10000 nM
N#Cc1c(-c2ccccc2)n(CCc2ccccc2)c2c(=S)[nH]cnc12 [1-0312]	1000 to 10000 nM
N#Cc1c(-c2ccccc2)n(CCCc2ccccc2)c2c(=O)[nH]cnc12 [1-0320]	1000 to 10000 nM
Cc1c(C#N)c2nc[nH]c(=S)c2n1CCCc1ccccc1 [1-0323]	1000 to 10000 nM
N#Cc1c(-c2ccccc2)n(CCOc2ccccc2)c2c(=S)[nH]cnc12 [1-0372]	1000 to 10000 nM
Cn1cccc1-c1c(C#N)c2nc[nH]c(=S)c2n1CCN [1-0459, 5-(2-aminoethyl)-6-(1-methylpyrrol-2-yl)-4-thioxo-3-hydropyrrolo[3,2-d]pyrimidine-7-carbonitrile]	1000 to 10000 nM
N#Cc1c(-c2c(F)cccc2F)n(CCN)c2c(=S)[nH]cnc12 [1-0460, 5-(2-aminoethyl)-6-(2,6-difluorophenyl)-4-thioxo-3-hydropyrrolo[3,2-d]pyrimidine-7-carbonitrile]	1000 to 10000 nM
N#Cc1c(-c2ccccc2)n(CCc2nc(-c3ccccc3)no2)c2c(=S)[nH]cnc12 [1-0495, 6-phenyl-5-[2-(3-phenyl(1,2,4-oxadiazol-5-yl))ethyl]-4-thioxo-3-hydropyrrolo[3,2-d]pyrimidine-7-carbonitrile]	1000 to 10000 nM
N#Cc1c(-c2ccccc2)n(CCN2C(=O)c3ccccc3C2=O)c2c(=S)[nH]cnc12 [1-0501, 5-[2-(1,3-dioxoisoindolin-2-yl)ethyl]-6-phenyl-4-thioxo-3-hydropyrrolo[3,2-d]pyrimidine-7-carbonitrile]	1000 to 10000 nM
CC(C)OCCCn1c(-c2cc(O)cc(O)c2)c(C#N)c2nc[nH]c(=S)c21 [1-0529, 6-(3,5-dihydroxyphenyl)-5-[3-(methylethoxy)propyl]-4-thioxo-3-hydropyrrolo[3,2-d]pyrimidine-7-carbonitrile]	10 to 30 nM
N#Cc1c(-c2ccccc2)n(CCCOc2ccccc2)c2c(=S)[nH]cnc12 [1-0537]	1000 to 10000 nM
N#Cc1c(-c2cccc(C(=O)O)c2)[nH]c2c(=S)[nH]cnc12 [1-0687, 3-(7-cyano-4-thioxo-3-hydropyrrolo[4,5-d]pyrimidin-6-yl)benzoic acid]	1000 to 10000 nM
N#Cc1c(-c2cccc(O)c2)[nH]c2c(=S)[nH]cnc12 [1-0698, 6-(3-hydroxyphenyl)-4-thioxo-3-hydropyrrolo[3,2-d]pyrimidine-7-carbonitrile]	10 to 30 nM
N#Cc1c(-c2ccccc2Br)[nH]c2c(=S)[nH]cnc12 [1-0751, 6-(2-bromophenyl)-4-thioxo-3-hydropyrrolo[3,2-d]pyrimidine-7-carbonitrile]	30 to 100 nM
N#Cc1c(-c2ccccc2N)[nH]c2c(=S)[nH]cnc12 [1-0753, 6-(2-aminophenyl)-4-thioxo-3-hydropyrrolo[3,2-d]pyrimidine-7-carbonitrile]	1000 to 10000 nM
N#Cc1c(-c2ccccc2Br)[nH]c2c(=O)[nH]cnc12 [1-1040, 6-(2-bromophenyl)-4-oxo-3-hydropyrrolo[3,2-d]pyrimidine-7-carbonitrile]	1000 to 10000 nM

Further lines, results first:

IC50	SMILES
1000 to 10000 nM	CC(C)(C)OC(=O)NCCCn1c(-c2ccccc2)c(C#N)c2nc[nH]c(=O)c21 [2-0208]
1000 to 10000 nM	CC(=O)OCCCn1c(-c2ccccc2)c(C#N)c2nc[nH]c(=O)c21 [2-0519]
1000 to 10000 nM	N#Cc1c(-c2ccccc2)n(CCCOC(=O)c2ccco2)c2c(=O)[nH]cnc12 [2-0530]
30 to 100 nM	N#Cc1c(-c2ccccc2)n(CCNC(=O)c2ccccc2)c2c(=S)[nH]cnc12 [2-0558]
10 to 30 nM	Cc1ccoc1-c1c(C#N)c2nc[nH]c(=S)c2n1CCNC(=O)C(F)(F)F [2-0601, N-{2-[7-cyano-6-(3-methyl(2-furyl))-4-thioxo(3-hydropyrrolo[3,2-d]pyrimidin-5-yl)]ethyl}-2,2,2-trifluoroacetamide]
30 to 100 nM	Cn1cccc1-c1c(C#N)c2nc[nH]c(=S)c2n1CCNC(=O)C(F)(F)F [2-0604, N-{2-[7-cyano-6-(1-methylpyrrol-2-yl)-4-thioxo(3-hydropyrrolo[3,2-d]pyrimidin-5-yl)]ethyl}-2,2,2-trifluoroacetamide]
30 to 100 nM	Cc1ccc(N)c(C(=O)NCCn2c(-c3ccccc3)c(C#N)c3nc[nH]c(=S)c32)c1 [2-0635, (2-amino-5-methylphenyl)-N-[2-(7-cyano-6-phenyl-4-thioxo(3-hydropyrrolo[3,2-d]pyrimidin-5-yl))ethyl]carboxamide]
1000 to 10000 nM	Cc1ccoc1-c1c(C#N)c2nc[nH]c(=O)c2n1CCNC(=O)C(F)(F)F [2-1664, N-{2-[7-cyano-6-(3-methyl(2-furyl))-4-oxo(3-hydropyrrolo[3,2-d]pyrimidin-5-yl)]ethyl}-2,2,2-trifluoroacetamide]
1000 to 10000 nM	N#Cc1c(-c2ccccc2)n(CCNCc2ccccc2)c2c(=S)[nH]cnc12 [2-1775, 6-phenyl-5-{2-[benzylamino]ethyl}-4-thioxo-3-hydropyrrolo[3,2-d]pyrimidine-7-carbonitrile]
30 to 100 nM	N#Cc1c(-c2ccccc2)n(CCNC(=O)Nc2cccc(C(=O)O)c2)c2c(=S)[nH]cnc12 [2-1777, 3-({N-[2-(7-cyano-6-phenyl-4-thioxo-3-hydropyrrolo[3,2-d]pyrimidin-5-yl)ethyl]carbamoyl}amino)benzoic acid]
30 to 100 nM	N#Cc1c(-c2ccco2)n(CCNC(=O)C(F)(F)F)c2c(=S)[nH]cnc12 [2-1804, N-[2-(7-cyano-6-(2-furyl)-4-thioxo(3-hydropyrrolo[3,2-d]pyrimidin-5-yl))ethyl]-2,2,2-trifluoroacetamide]
1000 to 10000 nM	N#Cc1c(-c2ccccc2)n(CCn2c(=O)[nH]c3ccccc3c2=O)c2c(=S)[nH]cnc12 [2-1849, 5-[2-(2,4-dioxo(1,3-dihydroquinazolin-3-yl))ethyl]-6-phenyl-4-thioxo-3-hydropyrrolo[3,2-d]pyrimidine-7-carbonitrile]
30 to 100 nM	CN(CCn1c(-c2ccccc2)c(C#N)c2nc[nH]c(=S)c21)C(=O)C(F)(F)F [2-1855]
1000 to 10000 nM	CN(C(=O)CCn1c(-c2ccccc2)c(C#N)c2nc[nH]c(=S)c21)c1ccccc1 [3-0099]
30 to 100 nM	N#Cc1c(-c2ccccc2)n(CCC(=O)N2CCCC2)c2c(=S)[nH]cnc12 [3-0148]
< 10 nM	N#Cc1c(-c2ccccc2)n(CCC(=O)N2CCCCC2)c2c(=S)[nH]cnc12 [3-0152]
< 10 nM	N#Cc1c(-c2ccco2)n(CCC(=O)N2CCCCC2)c2c(=S)[nH]cnc12 [3-0156]
< 10 nM	N#Cc1c(-c2ccccc2)n(CCC(=O)N2CCC(C(=O)O)CC2)c2c(=S)[nH]cnc12 [3-0231, 1-[3-(7-cyano-6-phenyl-4-thioxo-3-hydropyrrolo[3,2-d]pyrimidin-5-yl)propanoyl]piperidine-4-carboxylic acid]
30 to 100 nM	N#Cc1c(-c2ccccc2)n(CCC(=O)N2CCOCC2)c2c(=S)[nH]cnc12 [3-0294]
30 to 100 nM	CCNC(=O)CCn1c(-c2ccccc2)c(C#N)c2nc[nH]c(=S)c21 [3-1792]
1000 to 10000 nM	CCOC(=O)CCn1c(-c2ccccc2)c(C#N)c2nc[nH]c(=S)c21 [4-0005, ethyl 3-(7-cyano-6-phenyl-4-thioxo-3-hydropyrrolo[3,2-d]pyrimidin-5-yl)propanoate]
1000 to 10000 nM	CCOC(=O)CCCn1c(-c2ccccc2)c(C#N)c2nc[nH]c(=O)c21 [4-0030]
10 to 30 nM	N#Cc1c(C2CC2)n(CCC(=O)O)c2c(=S)[nH]cnc12 [4-0092, 3-(7-cyano-6-cyclopropyl-4-thioxo-3-hydropyrrolo[3,2-d]pyrimidin-5-yl)propanoic acid]
10 to 30 nM	N#Cc1c(NC2CC2)n(CCNC(=O)c2ccccc2)c2c(=S)[nH]cnc12 [6-0413, N-{2-[7-cyano-6-(cyclopropylamino)-4-thioxo(3-hydropyrrolo[3,2-d]pyrimidin-5-yl)]ethyl}benzamide]
